The text below walks through data of article PMC6287892, “Design, Synthesis, and Biological Evaluation of 3-(Imidazo[1,2-a]pyrazin-3-ylethynyl)-4-isopropyl-N-(3-((4-methylpiperazin-1-yl)methyl)-5-(trifluoromethyl)phenyl)benzamide as a Dual Inhibitor of Discoidin Domain Receptors 1 and 2” (Journal of Medicinal Chemistry, 2018).

SMILES strings stand for the structures.

The test system of data set [1] is Male C57BL/6 mice. As to the kind of experiment: Acute-toxicity assay in mice. To be noted: 200 or 400 mg/kg by gavage. Format: in vivo. Here is the method: Male C57BL/6 mice weighing 18–20 g were randomly divided into three groups (n = 5 per group). Mice were gavage-administered 200 μL of the drug (at 200 or 400 mg/kg in physiological saline). Mice in the control group received 200 μL of physiological saline. After drug administration, body-weight changes were recorded for 7 days.

Data set [2] in a line: Pharmacokinetic parameters in rats. Format: in vivo. The note with it: SD rats. How it is done: Male SD rats weighing 180–220 g (Southern China Medical University) were utilized for the studies. The protocol was approved by the Animal Care and Use Committee, GIBH. Animals were given standard animal chow and water ad libitum in a climate-controlled room (23 ± 1 °C, 30–70% relative humidity, a minimum of 10 exchanges of room air per hour, and a 12 h light–dark cycle) for 1 week prior to experiments. The compound was dissolved in a solution containing 2% DMSO, 4% ethanol, 4% castor oil, and 90% ddH2O. The pharmacokinetic properties of the SD rats (male) were determined following iv and oral administration. Animals were randomly distributed into two experimental groups (n = 3). […] After single administration, whole blood samples (100–200 μL) were obtained from the orbital venous plexus at the following time points after dosing: 5, 10, and 30 min and 1, 2, 3, 4, 6, 8, 11, and 24 h (po) or 2, 10, and 30 min and 1, 2, 3, 4, 6, 8, 11, and 24 h (iv). Whole blood samples were collected in heparinized tubes. The plasma fraction was immediately separated by centrifugation (8000 rpm, 6 min, 4 °C) and stored at −20 °C until LC-MS analysis. The rats were humanely euthanasia by carbon dioxide 24 h after the experiment without pain. The pharmacokinetics parameters were calculated by analyzing the compound concentrations in plasma samples using the pharmacokinetic software DAS.2.0.

The mark [3] stands for this setting: male, rat, plasma, iv (4 mg/kg).
[4] abbreviates: male, rat, plasma, oral (20 mg/kg).

As to `CC(C)c1ccc(C(=O)Nc2cc(CN3CCN(C)CC3)cc(C(F)(F)F)c2)cc1C#Cc1cnc2cnccn12` [Compound 5n, 3-(Imidazo[1,2-a]pyrazin-3-ylethynyl)-4-isopropyl-N-(3-((4-methylpiperazin-1-yl)methyl)-5-(trifluoromethyl)phenyl)benzamide], the tolerability entry in data set [1] is on record as “well-tolerated”. Also, the “animal deaths and body-weight changes” value in data set [1] (7 days) is listed as “no animal deaths or obvious body-weight changes”. This compound also came in with a BA in data set [2] (oral (20 mg/kg) vs iv (4 mg/kg)) of 8.06%. In data set [2] (setting [3]), this compound had an area under the curve AUC(0-inf) of 798 ± 121 ng·h/mL, a Cmax of 1180 ± 150 ng/mL and a half-life of 2.12 ± 0.25 h. The clearance in data set [2] (male, rat, plasma, iv (4 mg/kg), read-out: CLz (converted)) is 85 mL/min/kg. Moreover, in data set [2] (setting [4]), the AUC(0-inf) stood at 322 ± 106 ng·h/mL, the maximum concentration (Cmax) is 48.7 ± 18.2 ng/mL, the Tmax stood at 1.5 ± 1.3 h and the half-life was 2.08 ± 0.66 h.
